What was measured:
[1] = biological target: GDP-bound NRAS wild-type protein (Homo sapiens, UniProt P01111); assay: Binding to NRAS by surface plasmon resonance (SPR), KD and KD ratio to KRAS
Outline: (§1)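 Running buffer contained 10 µM GDP and 10 mM MgCl2 to keep RAS in the GDP state, with 4% DMSO at pH 7.4. Compounds were flowed at 100 µL/min in 75 s steps of rising concentration over captured biotin-Avi RAS at 30°C. Sensorgrams were fitted 1:1 for KD.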

HRAS wild-type protein = HRAS wild-type protein (Homo sapiens, UniProt P01112); assay: Binding to HRAS by surface plasmon resonance (SPR), KD and KD ratio to KRAS
Chain of HRAS wild-type protein (P01112 whole entry): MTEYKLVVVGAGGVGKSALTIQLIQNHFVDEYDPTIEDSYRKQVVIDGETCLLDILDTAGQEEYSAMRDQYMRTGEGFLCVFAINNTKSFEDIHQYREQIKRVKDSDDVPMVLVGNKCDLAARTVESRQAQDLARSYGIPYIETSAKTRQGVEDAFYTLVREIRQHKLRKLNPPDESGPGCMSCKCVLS
Outline: as §1

[2] = system: human lung cancer strain NCI-H441; format: cell-based
Outline: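 Step one: dispense the test compound in serial DMSO dilutions. Step three: add the reagent and measure […].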

[3] = ratio of the KD value with respect to GDP-bound NRAS wild-type protein to the KD value with respect to KRAS
[4] = ratio of the KD value with respect to HRAS wild-type protein to the KD value with respect to KRAS
[5] = ratio of KD value for GDP-bound NRAS wild-type protein to KD value for KRAS (SPR)
[6] = ratio of KD value for HRAS wild-type protein to KD value for KRAS (SPR)

Chain of GDP-bound NRAS wild-type protein (P01111 whole entry): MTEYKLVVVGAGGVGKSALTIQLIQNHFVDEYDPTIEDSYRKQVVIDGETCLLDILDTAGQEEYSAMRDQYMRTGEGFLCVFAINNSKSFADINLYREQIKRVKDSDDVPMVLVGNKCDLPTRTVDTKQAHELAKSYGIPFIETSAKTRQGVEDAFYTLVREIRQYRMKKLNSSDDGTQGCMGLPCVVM

SMILES	IC50 [2]	NRAS /KRAS [1, 3]	HRAS /KRAS (HRAS wild-type protein; [4])	NRAS /KRAS [1, 5]	HRAS /KRAS (HRAS wild-type protein; [6])
CC[C@H](C)[C@@H]1NC(=O)[C@@H]2CCCCCN2C(=O)C[C@@H](C(=O)N2CCOCC2)N(C)C(=O)[C@H](C2CCCC2)N(C)C(=O)C2(CCCC2)NC(=O)[C@@H]2CCCN2C(=O)[C@H](CCc2cc(F)c(C(F)(F)F)c(F)c2)NC(=O)CN(C)C(=O)[C@H](Cc2ccc(C(F)(F)F)cc2)N2CCCCC[C@@H](C2=O)N(C)C(=O)CN(C)C1=O [PP0521]	586 nM	B (a compound having 3 or more and less than 10 is denoted as B)	B (a compound having 3 or more and less than 10 is denoted as B)	–	–
CC[C@H](C)[C@@H]1NC(=O)[C@H](CC(C)C)N(C)C(=O)C[C@@H](C(=O)N(C)C)N(C)C(=O)[C@H](C2CCCC2)N(C)C(=O)C2(CCC2)NC(=O)[C@@H]2C[C@H](C)CN2C(=O)[C@H](CCc2cc(F)c(C(F)(F)F)c(F)c2)NC(=O)CN(C)C(=O)[C@H](Cc2ccc(C)cc2)N2CC/C=C\C[C@@H](C2=O)N(C)C(=O)CN(C)C1=O [PP1864]	10.2 nM	–	–	A (a compound having 10 or more and less than 20 is denoted as A)	B (a compound having 3 or more and less than 10 is denoted as B)
CCC[C@H]1C(=O)N[C@@H]([C@@H](C)CC)C(=O)N(C2CC2)CC(=O)N(C)[C@H]2C/C=C\CCN(C2=O)[C@@H](Cc2ccc(C(F)(F)F)cc2)C(=O)N(C)CC(=O)N[C@@H](CCc2cc(F)c(C(F)(F)F)c(F)c2)C(=O)N2C[C@H](OCC)C[C@H]2C(=O)NC2(CC(C)(C)C2)C(=O)N(C)[C@@H](C2CCCC2)C(=O)N(C)[C@H](C(=O)N(C)C)CC(=O)N1C [PP2101]	16.6 nM	A (a compound having 10 or more and less than 20 is denoted as A)	B (a compound having 3 or more and less than 10 is denoted as B)	–	–
CC[C@H](C)[C@@H]1NC(=O)[C@H](CC)N(C)C(=O)C[C@@H](C(=O)N2CCOCC2)N(C)C(=O)[C@H](C2CCCC2)N(C)C(=O)C2(CCCC2)NC(=O)[C@@H]2CCCN2C(=O)[C@H](CCc2cc(F)c(C(F)(F)F)c(F)c2)NC(=O)CN(C)C(=O)[C@H](Cc2ccc(C(F)(F)F)cc2)N2CCCCC[C@@H](C2=O)N(C)C(=O)CN(C)C1=O [PP0488]	54.3 nM	A (a compound having 10 or more and less than 20 is denoted as A)	B (a compound having 3 or more and less than 10 is denoted as B)	–	–

The next molecules have a lower IC50 [2] than those just listed; values first:

IC50 [2]	SMILES	NRAS /KRAS [1, 3]	HRAS /KRAS (HRAS wild-type protein; [4])	NRAS /KRAS [1, 5]	HRAS /KRAS (HRAS wild-type protein; [6])
7.4 nM	CCC[C@H]1C(=O)N[C@@H]([C@@H](C)CC)C(=O)N(C2CC2)CC(=O)N(C)[C@H]2C/C=C\CCN(C2=O)[C@@H](Cc2ccc(C)cc2)C(=O)N(C)CC(=O)N[C@@H](CCc2cc(F)c(C(F)(F)F)c(F)c2)C(=O)N2C[C@H](OCC)C[C@H]2C(=O)NC2(CC(C)(C)C2)C(=O)N(C)[C@@H](C2CCCC2)C(=O)N(C)[C@H](C(=O)N(C)C)CC(=O)N1C [PP2093]	A (a compound having 10 or more and less than 20 is denoted as A)	A (a compound having 10 or more and less than 20 is denoted as A)	–	–
2.5 nM	CCO[C@@H]1C[C@H]2C(=O)NC3(CC(C)(C)C3)C(=O)N(C)[C@@H](C3CCCC3)C(=O)N(C)[C@H](C(=O)N(C)C)CC(=O)N(C)[C@H]3CCCC/C=C/c4ccc(cc4)C[C@@H](C(=O)N(C)CC(=O)N[C@@H](CCc4ccc(C(F)(F)F)c(OC)c4)C(=O)N2C1)N1CC/C=C\C[C@@H](C1=O)N(C)C(=O)CN(C)C(=O)[C@H]([C@@H](C)CC)NC3=O [PP1832]	–	–	B (a compound having 3 or more and less than 10 is denoted as B)	B (a compound having 3 or more and less than 10 is denoted as B)
5.5 nM	CCCN(C)C(=O)[C@@H]1CC(=O)N(C)[C@@H](CC2CC2)C(=O)N[C@@H]([C@@H](C)CC)C(=O)N(C)CC(=O)N(C)[C@H]2C/C=C\CCN(C2=O)[C@@H](Cc2ccc(C(F)(F)F)cc2)C(=O)N(C)CC(=O)N[C@@H](CCc2cc(F)c(C(F)(F)F)c(F)c2)C(=O)N2C[C@H](OCC)C[C@H]2C(=O)NC2(CC(F)(F)C2)C(=O)N(C)[C@@H](C2CCCC2)C(=O)N1C [PP1739]	–	–	AA (a compound having 20 or more is denoted as AA)	AA (a compound having 20 or more is denoted as AA)

Source: EP4603105A1, “PHARMACEUTICAL COMPOSITION CONTAINING CYCLIC COMPOUND HAVING SELECTIVE KRAS INHIBITORY EFFECT AGAINST HRAS AND NRAS” (CHUGAI SEIYAKU KABUSHIKI KAISHA, priority 2022, dated 2024)
